Measured values: patent US20220008449A1, “A METHOD OF MIMICKING BENEFITS OF DIETARY RESTRICTION BY TRANSIENTLY UPREGULATING ER STRESS RESPONSE” (NATIONAL INSTITUTE OF IMMUNOLOGY, priority 2018, published 2022)
“Also recorded” adds a separate entry of the source.

Assays:
Type in all cases: in vivo, Caenorhabditis elegans
C. elegans = assay: Adult life span after transient (first 24 h) Tm or 2DG supplementation
Procedure: Gravid adult worms, initially grown on E. coli OP50 were bleached and eggs were hatched on different RNAi plates. On reaching adulthood, 50-60 young adult worms were transferred to the similar RNAi plates in triplicates and overlaid with Fluoro-deoxyuridine (FudR) to final concentration of 0.1 mg/ml of agar (2). At the 7th Day of adulthood, sick, sluggish and slow dwelling worms were removed from the life span population and the remaining were considered as the number of subjects ‘N’. Following this, number of dead worms were scored every alternate day and plotted as % survival against the number of days. Statistical analysis for survival was conducted using Mantel-Cox Log Rank test using Oasis software. Average life span was also determined using the same method and represented as Mean life span±Standard Error Mean (S.E.M).
Overnight grown bacterial culture expressing Control or test RNAi were re-inoculated in 200 ml fresh LB media and grown at 37° C. until OD600 reached 0.5-0.6. The culture was divided in two parts (A and B) in a ratio of 1:3 and cells are pelleted separately using a centrifuge (4810R, Eppendorf, Germany) at 5000 r.p.m for 10 minutes at 4° C. Pellet from part B (150 ml) of the culture was resuspended in 1×M9 buffer containing 100 μg/ml ampicillin and 1 mM IPTG to 1/10th of its initial culture volume (for 150 ml culture, 15 ml of resuspension buffer was used) and 350 μl was seeded onto each RNAi plate and left for drying at room temperature for 24 hours.
Gravid adult worms initially grown on E. coli OP50 bacteria were bleached and eggs were re-suspended in 100-200 ul of 1×M9 buffer and standardized for the number of eggs present in a particular volume.
Entire composition of cocktail (total volume 1 ml) is mentioned as follows:
Eggs were left on rotation in this cocktail at a slow speed for 24 hrs. […] They were allowed to grow till adulthood when 100 worms belonging to each treatment regime were transferred onto FuDR containing RNAi plates and life span was scored as mentioned above. iUPR^ER efficiency was also measured on Day 2 of adulthood, as mentioned previously.
Since transient up-regulation of UPR^ER was observed, experiments were conducted to see its causal role in life span extension, as observed during DR. […] After the pharmaceutical reagent was washed off, the worms were grown on solid NGM media and post-adult life span was recorded. […] This observation supports the role of hormesis, triggered by an early ER stress as a mechanism of DR-mediated life span enhancement, in the models that were tested.

Phsp-4:gfp(zcIs4) worms = assay: Induced UPR^ER (iUPR^ER) efficiency, Phsp-4:gfp fluorescence after acute Tm challenge in adulthood; details: for iUPR^ER at adulthood after Tm hormesis: acute 5 mg/mL tunicamycin treatment, day 2 of adulthood
Procedure: Transgenic Phsp-4:gfp(zcIs4) and eat-2(ad1116);Phsp-4:gfp(zcIs4) were bleached and eggs were hatched on control RNAi. Worms were allowed to grow till adulthood and then transferred onto plates overlaid with FuDR to a final concentration of 0.1 mg/ml. […] Since Tm is dissolved in 0.05% DMSO, it was used as vehicle control. After 6 hours, 50 worms from each treatment were mounted onto 2% agarose slides and visualized using Axio-Imager M2 epifluorescent microscope with a GFP filter set (Carl Zeiss, Germany) Fluorescence of ≥20 Tm-treated and untreated worms was quantified using NIH ImageJ software. Average fluorescence of treated worms was normalized to untreated worms and plotted as normalized GFP fold induction at different days of adulthood. Similar procedure was followed to compare iUPR^ER efficiency of Phsp-4:gfp(zcIs4) on control and drl-1 RNAi on different days of adulthood.
Eggs were left on rotation in this cocktail at a slow speed for 24 hrs. Following this, the hatched L1 larvae were washed 3-4 times with 1×M9 buffer to remove traces of tunicamycin and added onto seeded control RNAi or test RNAi plates containing no reagent. They were allowed to grow till adulthood when 100 worms belonging to each treatment regime were transferred onto FuDR containing RNAi plates and life span was scored as mentioned above. iUPR^ER efficiency was also measured on Day 2 of adulthood, as mentioned previously.
Since it was observed that transient ER stress using Tm at early post-embryonic stage increased life span, it was tested whether this treatment could also lead to a better iUPR^ER efficiency with age. […] Importantly, hormetic up-regulation of the ER stress response during early developmental life leads to this increased ER efficiency contributing towards enhanced longevity during DR.

[1] = tested on: Punc-54:polyQ40:yfp worms; assay: PolyQ aggregate number in adult worms after transient Tm exposure
Source text: In order to evaluate the role of DR in augmenting the ERAD and its physiological consequences, a reporter was used that expresses a stretch of 40 glutamines (Q40) tagged with a yellow fluorescent protein in C. elegans muscle. This reporter strain was crossed with eat-2(ad1116) mutant worms to generate worms carrying both the reporter transgene and the eat-2 mutation (hereafter, referred to as eat-2;PolyQ). It was observed that incorporating eat-2 mutation led to 60-80% suppression in the number of aggregates at all age points, supporting the earlier observation of alleviation in the age-associated increase in PolyQ aggregation during DR (FIG. 6A). […] Since ire-1 was a requirement for DR-mediated longevity, it was tested whether this beneficial effect conferred under DR is also dependent on this gene.
It was reported that an atypical up-regulation of UPR^ER in larvae contributes towards increased life span during DR. It was shown that pharmaceutically mimicking the transient UPR^ER up-regulation during early larval life augmented the iUPR^ER efficiency with age and increased life span. To determine whether such hormetic intervention can protect against the age-related proteostasis collapse, WT worms were exposed with a range of concentrations of Tm only during the start of larval development, as mentioned before. […]

O=CC[C@@H](O)[C@H](O)[C@H](O)CO [2-DG, 2-deoxy glucose]
Effect on life span (C. elegans; WT, transient 2DG 0.0625 mM first 24 hours): increased; also recorded: significantly increasing life span
Life span Mean ± SEM (C. elegans; Wild type, 2-DG 0.0625 mM for first 24 hours): 21.21 ± 0.37 days
Life span % Change (C. elegans; Wild type, 2-DG 0.0625 vs 0 mM): 11.69%
Life span Mean ± SEM (C. elegans; ire-1(v33), 2-DG 0.0625 mM for first 24 hours): 20.07 ± 0.26 days
Life span % Change (C. elegans; ire-1(v33), 2-DG 0.0625 vs 0 mM): −0.64%
Effect on life span (C. elegans; ire-1(v33), transient 2DG treatment): failed to increase life span; also recorded: ire-1-dependent manner

Tunicamycin [Tm]
Effect on life span (C. elegans; WT larvae, 0.125 μg/ml Tm during first 24 hours): sufficient to extend lifespan; also recorded: significant extension of life span
Dependence of Tm hormesis life span extension on PHA-4 (C. elegans; WT on control or pha-4 RNAi, Tm 0.125 μg/mL initial 24 h): suppressed; also recorded: dependent on PHA-4
Dependence of Tm life span effect on ire-1 (C. elegans; WT vs ire-1(v33), Tm 0.125 μg/ml initial 24 hours): completely dependent on ire-1
Life span Mean ± SEM (C. elegans; Wild type (for eat-2 hormesis expt), Tm 0.125 μg/ml for first 24 hours): 21.58 ± 0.36 days
Life span % Change (C. elegans; Wild type (for eat-2 hormesis expt), Tm 0.125 vs 0 μg/ml): 15.83%
Life span Mean ± SEM (C. elegans; Wild type (for ire-1 hormesis expt), Tm 0.125 μg/ml for first 24 hours): 22.02 ± 0.30 days
Life span % Change (C. elegans; Wild type (for ire-1 hormesis expt), Tm 0.125 vs 0 μg/ml): 18.83%
Life span Mean ± SEM (C. elegans; Wild type, Tm 0.125 μg/ml for first 24 hours): 21.73 ± 0.28 days
Life span % Change (C. elegans; Wild type, Tm 0.125 vs 0 μg/ml): 17.78%
Life span Mean ± SEM (C. elegans; eat-2 (ad1116), Tm 0.125 μg/ml for first 24 hours): 25.32 ± 0.45 days
Life span % Change (C. elegans; eat-2 (ad1116), Tm 0.125 vs 0 μg/ml): −10.47%
Effect on life span (C. elegans; eat-2(ad1116), Tm supplementation): cannot further increase lifespan
Life span Mean ± SEM (C. elegans; ire-1(v33), Tm 0.125 μg/ml for first 24 hours): 18.64 ± 0.21 days
Life span % Change (C. elegans; ire-1(v33), Tm 0.125 vs 0 μg/ml): −0.85%
iUPR^ER at adulthood after Tm hormesis (Phsp-4:gfp(zcIs4) worms; control RNAi worms): even higher iUPR^ER
iUPR^ER at adulthood after Tm hormesis (Phsp-4:gfp(zcIs4) worms; pha-4 RNAi worms): not able to increase the iUPR^ER response
iUPR^ER efficiency at day 2 of adulthood (Phsp-4:gfp(zcIs4) worms; transient Tm 24 hours post-bleaching, challenge Tm 10 μg/ml for 6 hours on day 2): increases iUPR^ER efficiency; also recorded: higher iUPR^ER efficiency
Number of polyQ aggregates ([1]; Punc-54:polyQ40:yfp on control RNAi, 0.125 μg/ml and 0.25 μg/ml Tm during larval development, day 2 and day 3 of adulthood): suppression; also recorded: significant reduction in the number of aggregates
Number of polyQ puncta ([1]; ire-1(v33);Q40:yfp worms treated with hormetic dose of Tm (0.125 μg/ml)): significantly higher puncta at all age points
